For data set [1] the following is noted: patients, reported in literature; cited from earlier work.
Data set [2] deals with H460 cells. In words: Alamar Blue antiproliferation assay, H460 cell line. The class given is cell-based, human. The method, then: (§1) To determine the effect of the compounds of the present invention on cell proliferation, the antiproliferative activity of these compounds was tested in a multi-well Alamar Blue based assay (at 2 h and 3 days). Cell growth in the presence and absence of the test compound as tabulated in Table 1 was compared, as measured by a fluorescence plate reader at excitation 550 nm and emission 590 nm (see Biosource International Inc., Tech Application Notes, Use of Alamar Blue in the measurement of Cell Viability and Toxicity, Determining IC50). H460 cells (ATCC HTB-177 ([…]), 4,000 cells/well/200 μl) and LNCap cells (ATCC CRL-1740, 6,000 cells/well/200 μl) were seeded in a 96 well plate in RPMI medium (Invitrogen Corporation, Carlsbad, Calif.). After 24 hours, these plates were divided into 3 groups—Control group, 2 h treatment group and 3 day treatment group.
(§2) In the 2 h treatment group, after 2 h the cells were rinsed to remove the test compound and incubated for 3 days, followed by staining with AlamarBlue. The cells in the 3-day treatment group were incubated for 3 days, followed by staining with AlamarBlue. In the Control group, AlamarBlue was added to the plate at (i) day 0 and (ii) day 3 and measured to establish the control reading. In all the groups, the capacity of the cells to proliferate was measured 6 hours after addition of AlamarBlue by a fluorescence plate reader at excitation 550 nm and emission 590 nm.

The subject of data set [3] is MES-SA. In words: Alamar Blue antiproliferation assay, MES-SA. The class given is cell-based. As to conditions: 3 Day.
The subject of data set [4] is MES-SA/DX5. Put plainly: Alamar Blue antiproliferation assay, MES-SA/DX5. It counts as cell-based. Particulars: MES-SA/DX5, 3 Day.
For data set [5], the system named is HT29. In words: Alamar Blue antiproliferation assay, HT29. The class given is cell-based. As to conditions: HT29, 3 Day. For orientation: Resazurin is reduced to fluorescent resorufin, in cell work by metabolically active cells.
The subject of data set [6] is cancer cell. In words: Cancer cell antiproliferation assay (cell line not stated). It counts as cell-based. Particulars: summary statement; read-out: GI50 or IC50 in a cancer cell antiproliferation assay. How it is done: In one aspect, the present invention provides a compound of formula (I-VII) having a GI50, GI90, IC50, or IC50 of about 0.001 to about 1000 nM, about 0.01 to about 100 nm, about 0.1 to about 50 nM, and about 1 to about 10 nM in a cancer cell antiproliferation assay. In one embodiment, the present invention provides a compound of formula (I) having a GI50 or IC50 of about 0.01 to about 100 nm, about 0.1 to about 50 nm, and about 1 to about 10 nm in a cancer cell antiproliferation assay. In various embodiments, said antiproliferation assays employ cancer cell including but not limited to gastric, colon, breast, and non-small cell lung cancer. In various embodiments, the […] cancer cell used is MESSA or doxorubicin resistant MESSA/DX5 cell; the colon cancer cell is HT29 cell; the breast cancer cell is T47D cell; and the non-small cell lung cancer cell is H460 cell.
as §1, §2

For data set [7], the system named is T47D. Put plainly: Alamar Blue antiproliferation assay, T47D. It counts as cell-based. Particulars: 3 Day.
Data set [8] concerns H460 cells. In words: Cell cycle analysis. Particulars: 24 h. The class given is cell-based, human. How it is done: H460 cells (2×10^5 cells/ml/well) were seeded in a 24 well plate. The culture media were removed after 24 h, the cells were trypsinized and centrifuged. […] The cells were centrifuged and the supernatant was discarded. The cell cycle staining reagent (Guava Technologies, Hayward, Calif., USA, 200 μl) was added to each well. The cells were shielded from light and incubated at room temperature for 30 min.

Data set [9] relates to tubulin. In words: Tubulin polymerization inhibition (cell free tubulin fluorescence). It counts as biochemical. Particulars: compared to untreated tubulin, read-out: IC50 (μM), concentration that reduced tubulin fluorescence by 50%. The method, then:
A sample of cell free tubulin polymerizes and the sample's fluorescence emission increases. Inhibition of tubulin polymerization by a tubulin binding compounds of the present invention was measured by the dose dependence of cell free tubulin fluorescence.

A short description of data set [10]: Metabolic stability in mouse liver microsomes. The class given is in vitro ADME. Particulars: 5 μM, 1 mg/mL protein, NADPH, 37° C. The method, then:
An in vitro assessment of metabolic stability of compounds was performed using commercially available mouse liver microsomes (MLM) containing cytochrome P450 enzymes (Cedra Corp, Austin, Tex.). A solutions (5 μM) of a compound and microsomes (1 mg/mL protein) was prepared. P450 enzymatic reactions were initiated by adding an NADPH solution. Enzymatic reactions were carried out in a thermostated shaking water bath kept at 37° C. Fifty μl of the reaction mixture was withdrawn immediately and 30 minutes after the addition of the NADPH solution and the proteins were precipitated with acetonitrile. The clear supernatant was analyzed by reversed phase LC-MS/MS (Applied Biosystems API-3000 with Hypersil-BDS C18 column and gradient elution), with internal standard area ratio quantification for the amount the compound remaining as shown in table 4.
For orientation: Microsomes from liver hold many membrane-bound enzymes, among them those of drug oxidation.

Data set [11] can be described thus: Plasma stability. It counts as in vitro ADME. As to conditions: mouse plasma, 5 μM, 37° C. The method, then: For an assessment of plasma stability of compounds, commercially available mouse plasma (Bioreclamation, Hicksville, N.Y.) was added to a DMSO solution of a compound, to a concentration of 5 μM. The reaction mixture (50 μl) was withdrawn immediately and after 30 minutes at 37° C., proteins were precipitated with acetonitrile. The clear supernatant was analyzed by reversed phase LC-MS/MS and the amount the compound remaining quantified as shown in table 4.

The subject of data set [12] is H460 xenograft. Put plainly: H460 xenograft mouse model. It counts as in vivo. As to conditions: day 21; taxol alone 10 mg/kg daily; treatment began at 150 mm^3 tumor volume. How it is done: Female CB17/SCID mice (purchased from Taconic, Oxnard, Calif.), 7-8 weeks of age, were allowed to acclimatize for at least three days, and handled under pathogen-free conditions. Human non-small cell lung cancer cell line […] was obtained from the American Type Culture Collection. The cell lines were cultured in RPMI 1640 media supplemented with 10% fetal bovine serum. Cells were maintained in a 37° C. incubator with 5% CO2. The H460 cells were harvested from culture and inoculated at 1×10^6 cells/animal in the […] subcutaneous space. […] Taxol was administered approximately 2-3 hours before that of compound 30.
The body weight of each mouse was recorded twice per week (FIG. 1). […] One animal in the treatment group was found dead on day 18, and two were found dead on day 22 in the combination group.
FIG. 2 graphically illustrates the mean tumor volume for each treatment group. Growth of each xenograft was monitored by externally measuring tumors in two dimensions using a digital caliper twice per week. Tumor volume (V) was determined by the following equation: V=(L×W^2)/2, where L is the length and W is the width of a xenograft. Tumor volumes were measured twice weekly. On day 11, the Treated/Control (T/C) ratio was 65% and 52% in the treatment and combination groups, respectively. At the final measurement (day 22), the T/C ratio for the treatment and combination groups respectively were 43% and 19%.

The mark [13] stands for this setting: Homo sapiens, NCI-H460, 2 h treatment, then 3 days incubation, read-out: GI50 (nM) 2 Hour.
Where [14] appears, read: Homo sapiens, NCI-H460, 72 h, 3 day treatment, read-out: GI50 (nM) 3 Days.

Where two headings read alike, the source gives them in different places. Where only a bound is given, the exact number is not on record here.

`COc1ccc(/C=C\c2cc(OC)c(OC)c(OC)c2)cc1OP(=O)(O)O` [Combretastatin A-4 phosphate]: in data set [1], the “maximum tolerated daily dose” value was 60-68 mg/m^2.
In the case of `COc1cc(C(=O)c2n[nH]c3c(C#CC(=O)O)c(OC)ccc23)cc(OC)c1OC` [Compound 37], the concentration for 50% growth inhibition (GI50) (in general, the concentration giving 50% growth inhibition) in [2] (setting [13]) came to 501 nM; in data set [2] (setting [14]), 3.2 nM; in [3] (Homo sapiens, 72 h), 3.2 nM; in [4] (Homo sapiens, 72 h) it was 3.5 nM; in data set [5] (Homo sapiens, HT-29, 72 h), 5 nM. The IC50 in [6] fell in the range of 1 to 50 nM.
As for `COc1cc(C(=O)c2n[nH]c3c(Br)c(OC)ccc23)cc(OC)c1OC` [Compound 39], the GI50 was 15.8 nM in data set [2] (setting [14]); 2.5 nM in [3] (Homo sapiens, 72 h); 10 nM in [4] (Homo sapiens, 72 h); 12.6 nM in [5] (Homo sapiens, HT-29, 72 h); 200 nM in [7] (Homo sapiens, 72 h). The “% G2/M” value amounted to 28% in data set [8] (H460, 0.4 nM); 31% in data set [8] (H460, 1.2 nM); 32% in data set [8] (H460, 3.7 nM); 29% in [8] (H460, 11.1 nM); 60% in [8] (H460, 33.3 nM). The “% Go/G1” value was found to be 50% in [8] (H460, 0.4 nM); 47% in data set [8] (H460, 1.2 nM); 45% in [8] (H460, 3.7 nM); 47% in data set [8] (H460, 11.1 nM); 18% in data set [8] (H460, 33.3 nM). Moreover, the “% S” value came to 15% in data set [8] (H460, 0.4 nM); 14% in data set [8] (H460, 1.2 nM); 12% in [8] (H460, 3.7 nM); 14% in [8] (H460, 11.1 nM); 13% in data set [8] (H460, 33.3 nM). For the same compound, the IC50 in data set [9] is 7.9 µM; in data set [6], 1 to 50 nM.
With `COc1cc(C(=O)c2n[nH]c3c(/C=C/CO)c(OC)ccc23)cc(OC)c1OC` [Compound 54], the GI50 in data set [2] (setting [13]) is 501 nM; in data set [2] (setting [14]) it was 2 nM; in data set [3] (Homo sapiens, 72 h), 3.2 nM; in data set [4] (Homo sapiens, 72 h), 6.3 nM; in data set [5] (Homo sapiens, HT-29, 72 h), 5 nM; in data set [7] (Homo sapiens, 72 h), 20 nM. Moreover, in data set [6], the IC50 fell in the range of 1 to 50 nM.
In the case of `COc1cc(C(=O)c2n[nH]c3c(CCCO)c(OC)ccc23)cc(OC)c1OC` [Compound 55], the GI50 in data set [2] (setting [13]) is over 10000 nM; in [2] (setting [14]) it was 7.9 nM; in [3] (Homo sapiens, 72 h), 12 nM; in [4] (Homo sapiens, 72 h), 15.8 nM; in data set [5] (Homo sapiens, HT-29, 72 h) it was 10 nM; in [7] (Homo sapiens, 72 h), 25 nM. Besides, the IC50 in [6] is 1 to 50 nM.
On to `COc1cc(C(=O)c2n[nH]c3c(C#CCOC(=O)OCc4ccc([N+](=O)[O-])o4)c(OC)ccc23)cc(OC)c1OC` [Compound 57], for which the GI50 worked out at 100 nM in data set [2] (setting [13]) and 10 nM in data set [2] (setting [14]). Also, in data set [10], the “Metabolic stability (MLM, % remaining at 30 min)” value came to 21 ± 4%.
For `COc1cc(C(=O)c2n[nH]c3c(C#N)c(OC)ccc23)cc(OC)c1OC` [Compound 58], in that order: over 10000 nM, 15.8 nM and 28 ± 6%.
As for `COc1cc(C(=O)c2n[nH]c3c(C(N)=O)c(OC)ccc23)cc(OC)c1OC` [Compound 60], the GI50 is over 1000 nM in [2] (setting [13]) and 25.1 nM in data set [2] (setting [14]). For the same compound, the “Metabolic stability (MLM, % remaining at 30 min)” value in data set [10] was determined as 94 ± 4%.
For `COc1cc(C(=O)c2n[nH]c3c(C#CC(C)O)c(OC)ccc23)cc(OC)c1OC` (centres unmarked) [Compound 66], the 50% growth inhibitory concentration (GI50) in [2] (setting [14]) turned out to be 10 nM; in data set [3] (Homo sapiens, 72 h), 15.8 nM; in [4] (Homo sapiens, 72 h) it was 10 nM; in data set [5] (Homo sapiens, HT-29, 72 h), 12.6 nM; in data set [7] (Homo sapiens, 72 h), 6.3 nM. Moreover, in data set [10], the “Metabolic stability (MLM, % remaining at 30 min)” value stood at 88 ± 11%. For the same compound, the IC50 in data set [6] is 1 to 50 nM.
With `COc1cc(C(=O)c2n[nH]c3c(C#Cc4ccccn4)c(OC)ccc23)cc(OC)c1OC` [Compound 68], the GI50 worked out at 1.4 nM in data set [2] (3 day treatment, read-out: GI50 (nM) 3 Days); 1.6 nM in [3]; 1.9 nM in data set [4]; 1.6 nM in data set [5]; 1.6 nM in [7]. Further, in [10], the “Metabolic stability (MLM, % remaining at 30 min)” value turned out to be 17 ± 4%.
As for `C#Cc1c(OC)ccc2c(C(=O)c3cc(OC)c(OC)c(OC)c3)n[nH]c12` [Compound 72], the GI50 in data set [2] (setting [14]) turned out to be 1.3 nM; in data set [3] (Homo sapiens, 72 h), 1.9 nM; in data set [4] (Homo sapiens, 72 h), 3.9 nM; in [5] (Homo sapiens, HT-29, 72 h), 1.6 nM; in [7] (Homo sapiens, 72 h), 6.3 nM. Besides, the “Metabolic stability (MLM, % remaining at 30 min)” value in data set [10] worked out at 40 ± 9%. In [11], the “Plasma stability (% remaining at 30 min)” value is given as 105%. In [6], the IC50 is 1 to 50 nM.
As to `CC(=O)O[C@H]1C(=O)[C@@]2(C)[C@H]([C@H](OC(=O)c3ccccc3)[C@]3(O)C[C@H](OC(=O)[C@H](O)[C@@H](NC(=O)c4ccccc4)c4ccccc4)C(C)=C1C3(C)C)[C@]1(OC(C)=O)CO[C@@H]1C[C@@H]2O` [taxol, paclitaxel, reference compound], the “TIC, tumor volume” value in [12] amounted to 56%.
